{
  "source": "paper PMC5041076",
  "about": "“Ilex kaushue and Its Bioactive Component 3,5-Dicaffeoylquinic Acid Protected Mice from Lipopolysaccharide-Induced Acute Lung Injury” (Scientific Reports, 2016)",
  "key": {"[1]": {"target": "T1, Human neutrophil elastase (Homo sapiens, UniProt P08246)", "T1 construct": "purchased Enzo BML-SE284", "T1 sequence (P08246 30-267)": "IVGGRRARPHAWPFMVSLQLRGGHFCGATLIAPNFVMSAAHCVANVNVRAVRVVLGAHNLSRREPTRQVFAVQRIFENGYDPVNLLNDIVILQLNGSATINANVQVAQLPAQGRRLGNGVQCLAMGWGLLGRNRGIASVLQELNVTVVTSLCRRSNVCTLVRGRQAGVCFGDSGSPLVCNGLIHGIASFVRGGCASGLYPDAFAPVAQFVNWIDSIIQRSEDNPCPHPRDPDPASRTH", "test": "Serine protease enzyme inhibition assay, HNE", "type": "biochemical"}, "[2]": {"target": "T2, Human cathepsin G (Homo sapiens, UniProt P08311)", "T2 construct": "purchased Enzo BML-SE283", "T2 sequence (P08311 21-255)": "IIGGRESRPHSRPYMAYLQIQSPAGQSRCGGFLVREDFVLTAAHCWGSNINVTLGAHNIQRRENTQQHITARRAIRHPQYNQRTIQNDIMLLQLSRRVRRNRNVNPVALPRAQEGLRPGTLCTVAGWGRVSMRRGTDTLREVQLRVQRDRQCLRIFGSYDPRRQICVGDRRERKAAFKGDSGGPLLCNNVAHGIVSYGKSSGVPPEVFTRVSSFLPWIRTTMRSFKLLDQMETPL", "test": "Serine protease enzyme inhibition assay, cathepsin G", "type": "biochemical", "settings": "mean ± S.E.M. (n ≥ 3)"}, "[3]": {"target": "T3, Human proteinase 3 (Homo sapiens, UniProt P24158)", "T3 construct": "purchased Merk 539483", "T3 sequence (P24158 28-256)": "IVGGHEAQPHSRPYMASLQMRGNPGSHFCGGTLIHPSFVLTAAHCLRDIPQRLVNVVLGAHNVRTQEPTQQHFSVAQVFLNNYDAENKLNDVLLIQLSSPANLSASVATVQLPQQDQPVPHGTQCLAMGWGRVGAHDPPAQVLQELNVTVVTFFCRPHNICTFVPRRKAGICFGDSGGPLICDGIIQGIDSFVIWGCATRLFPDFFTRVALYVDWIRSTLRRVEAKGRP", "test": "Serine protease enzyme inhibition assay, proteinase 3", "type": "biochemical", "settings": "mean ± S.E.M. (n ≥ 3)"}, "[4]": {"target": "T4, Bovine chymotrypsin (Bos taurus, UniProt P00766)", "T4 construct": "purchased Sigma-Aldrich C4129", "test": "Serine protease enzyme inhibition assay, chymotrypsin", "type": "biochemical", "settings": "mean ± S.E.M. (n ≥ 3)"}, "[5]": {"tested_on": "fMLF/CB-activated neutrophils", "test": "O2.- generation in fMLF/CB-activated neutrophils (ferricytochrome c reduction)", "type": "cell-based, human", "settings": "Neutrophil; fMLF/CB-activated human neutrophils", "procedure": "(§1) All assays were performed as described previously[58],[59]. Neutrophils isolated from the blood of healthy volunteers (20–30 years old) were resuspended in a Ca^2+-free HBSS buffer (pH 7.4) at 4 °C before use. O2^.− generation was measured based on reduction of ferricytochrome c. In brief, after supplementation with 0.5 mg/ml ferricytochrome c and 1 mM Ca^2+, neutrophils were equilibrated at 37 °C for 2 min and incubated with the specified drugs for 5 min. Neutrophils were activated using 30 nM fMLF or 100 nM LTB4 for 10 min after addition of cytochalasin B (CB, 1 μg/mL) for 3 min. Changes in absorbance concomitant with reduction of ferricytochrome c at 550 nm were continuously monitored. For elastase release, neutrophils (6 × 10^5 cells/mL) were mixed with methoxysuccinyl-Ala-Ala-Pro-Val-pNA (100 μM) substrate at 37 °C for 5 min. […] Inhibition of superoxide generation and elastase release were calculated in keeping with previous reports."}, "[6]": {"tested_on": "fMLF/CB-activated neutrophils", "test": "Elastase release in fMLF/CB-activated neutrophils", "type": "cell-based", "settings": "read-out: IC50 HNE (NE activity / elastase release)", "procedure": "as §1"}, "[7]": {"tested_on": "LTB4-induced human neutrophils", "test": "Elastase release in LTB4-induced neutrophils", "type": "cell-based", "settings": "Neutrophil, inducer LTB4, Table S2", "procedure": "as §1"}, "[8]": {"tested_on": "Src family kinases", "test": "Immunoblotting of Src family kinase phosphorylation in fMLF-activated neutrophils", "type": "cell-based, human", "settings": "10 μM, 5 min before fMLF (0.1 μM) 0.5 min, Western blot; listed as 3,5-DCQA", "procedure": "(§2) Neutrophils were pretreated with DMSO or 3,5-DCQA (10 μM) for 5 min before fMLF stimulation for 0.5 min at 37 °C. Cells were lysed with lysis buffer consisting of 50 mM HEPES (pH 7.4), 100 mM NaCl, 1 mM Ca^2+, 2 mM Na3VO4, 1 mM phenylmethanesulfonyl fluoride, 5% b-mercaptoethanol, 10 mM p-nitrophenyl phosphate, 1% protease inhibitor cocktail (Sigma-Aldrich) and 1% Triton X-100. Cell lysates were collected by centrifugation at 14,000 rpm for 20 min at 4 °C. After gel electrophoresis and transferring to membranes, samples were blocked with 5% nonfat milk in a mixture of Tris-buffer saline and Tween 20. Target protein was identified by the corresponding primary antibody overnight at 4 °C. Membranes were incubated with horseradish peroxidase-conjugated, secondary anti-rabbit or anti-mouse antibodies at room temperature for 1 h. After washing, enhanced chemiluminescence solution was used and protein expression was analyzed by the BioSpectrum Imaging System (UVP, Upland, CA). The quantitative ratio of target protein was normalized to total protein or GAPDH."}, "[9]": {"tested_on": "Vav", "test": "Immunoblotting of Vav phosphorylation in fMLF-activated neutrophils", "type": "cell-based, human", "settings": "10 μM, 5 min before fMLF (0.1 μM) 0.5 min, Western blot; listed as 3,5-DCQA", "procedure": "as §2"}, "[10]": {"tested_on": "Akt", "test": "Immunoblotting of Akt phosphorylation in fMLF-activated neutrophils", "type": "cell-based, human", "settings": "10 μM, 5 min before fMLF (0.1 μM) 0.5 min, Western blot; listed as 3,5-DCQA", "procedure": "as §2"}, "[11]": {"tested_on": "LPS-induced ALI in mice", "test": "LPS-induced ALI in mice", "type": "in vivo, mouse", "procedure": "Mice were randomly divided into nine groups (n = 6 per group): (1) Vehicle, (2) IKWE (500 mg/kg), (3) 3,5-DCQA (50 mg/kg), (4) LPS, (5) LPS + DEX (10 mg/kg), (6) LPS + IKWE (250 mg/kg), (7) LPS + IKWE (500 mg/kg), (8) LPS + 3,5-DCQA (25 mg/kg) and (9) LPS + 3,5-DCQA (50 mg/kg). Agents were dissolved in vehicle solution (PBS containing 10% Tween-80). All animals were pretreated intraperitoneally with 100 μL vehicle solution or agents, respectively, 1 h before PBS or LPS (Sigma, Escherichia coli. 055:B5) intratracheal injection (5 mg/kg in 50 μL of PBS)[26],[27]. Mice were sacrificed at 6 h post-dosage and the left lung collected for histological examination or MPO activity measurement. Lung tissue was fixed with 10% formalin before embedding with paraffin wax and routine H&E staining. MPO activity was measured as described earlier. The right lobes were prepared for W/D weight ratio determination or BALF analysis. To obtain the W/D weight ratio, wet tissues were weighed immediately after collection, dried in the oven at 80 °C for 48 h and re-weighed. For post-treatment experiments, mice treated with vehicle or 3,5-DCQA (50 mg/kg) intraperitoneally 1 h after LPS treatment.\nMice were sacrificed and hilum of the left lung sealed. BALF was collected following injection with 0.2, 0.2, 0.3, 0.3 or 0.5 mL PBS. BALF samples were combined and centrifuged at 1,000 rpm for 15 min at 4 °C. Total proteins in the supernatant fraction were determined using the protein assay dye (BIO-RAD, 500-0006) with BSA as the reference and TNF-α and IL-6 levels measured with ELISA kits (eBioscience, 88-7324-88 and 88-7064-88). Cell pellets from BALF were resuspended in 100 μL PBS and cytospun (200 g, 3 min) onto a glass microscope slide, followed by staining with Liu’s stain. Neutrophils were counted under a light microscope in five randomly selected fields (×200 magnification)[60]."}, "[12]": {"settings": "after intravenous administration ref 46, 47, 49; cited from earlier work"}, "[13]": {"tested_on": "LPS-stimulated RAW 264.7 cells", "set-up": "method as in PMID 25975516", "settings": "LPS-stimulated RAW 264.7 cells ref 45; cited from earlier work"}, "[14]": {"tested_on": "human neutrophils", "set-up": "method as in PMID 12384183", "settings": "100 μM, human neutrophils ref 35; cited from earlier work"}, "[15]": {"target": "Human thrombin (Homo sapiens, UniProt P00734)", "test": "Serine protease enzyme inhibition assay, thrombin"}, "[16]": {"settings": "pretreatment i.p. 1 h before LPS, 6 h"}},
  "note": "“Also recorded” adds a separate entry of the source.",
  "data": [
    {"smiles": "O=C(C=Cc1ccc(O)c(O)c1)OC1CC(O)(C(=O)O)CC(OC(=O)C=Cc2ccc(O)c(O)c2)C1O", "note": "(stereo not shown) [Compound 6, 3,5-dicaffeoylquinic acid]", "values": [
      {"measurement": "Inh % (HNE inhibition)", "setting": "[1]; at 30 M (so in the source), Table S3", "result": "90.53 ± 0.52", "unit": "%"},
      {"measurement": "IC50", "setting": "[1]; enzyme assay, mean ± S.E.M. (n ≥ 3), read-out: IC50 HNE", "result": "1.86 ± 0.06", "unit": "µM"},
      {"measurement": "selectivity of inhibitory effect among serine proteases", "setting": "[1]; five serine proteases examined", "result": "high selectivity for HNE"},
      {"measurement": "IC50", "setting": "[2]", "result": "> 30", "unit": "µM"},
      {"measurement": "IC50", "setting": "[3]", "result": "> 30", "unit": "µM"},
      {"measurement": "IC50", "setting": "[4]", "result": "> 30", "unit": "µM"},
      {"measurement": "IC50", "setting": "[5]", "result": "1.92 ± 0.54", "unit": "µM"},
      {"measurement": "IC50", "setting": "[6]; Homo sapiens, Neutrophil", "result": "12 ± 0.6", "unit": "µM"},
      {"measurement": "IC50", "setting": "[6]; fMLF/CB-activated human neutrophils", "result": "> 10", "unit": "µM"},
      {"measurement": "IC50", "setting": "[7]", "result": "2.9 ± 0.55", "unit": "µM"},
      {"measurement": "phosphorylation of SFKs", "setting": "[8]", "result": "reduce phosphorylation; also recorded: inhibited the phosphorylation"},
      {"measurement": "phosphorylation of Vav", "setting": "[9]", "result": "reduce phosphorylation; also recorded: inhibited the phosphorylation"},
      {"measurement": "phosphorylation of Akt", "setting": "[10]", "result": "did not inhibited the phosphorylation"},
      {"measurement": "pathological features of ALI, post-treatment", "setting": "[11]; 50 mg/kg i.p. 1 h after LPS", "result": "significantly improved"},
      {"measurement": "levels of proinflammatory cytokines (TNF-α and IL-6) in BALF", "setting": "[11]; [16]", "result": "Reduced levels"},
      {"measurement": "lung edema (W/D weight ratio)", "setting": "[11]; [16]", "result": "improve lung edema"},
      {"measurement": "accumulation / infiltration of neutrophils in lung tissue (MPO activity, BALF, histology)", "setting": "[11]; pretreatment i.p. 1 h before LPS, 6 h, listed as 3,5-DCQA", "result": "suppress accumulation of neutrophils; also recorded: significantly reduced"},
      {"measurement": "pathological features of ALI (hemorrhage, infiltrating neutrophils, thickening of alveolar wall)", "setting": "[11]; pretreatment i.p. 1 h before LPS, IKWE 500 mg/kg, 3,5-DCQA 50 mg/kg", "result": "significantly improved"},
      {"measurement": "time detectable in the plasma", "setting": "[12]", "result": 4, "unit": "h"},
      {"measurement": "TNF-α and IL-6 expression", "setting": "[13]", "result": "able to reduce"},
      {"measurement": "elastase release, myeloperoxidase activity and superoxide production", "setting": "[14]", "result": "able to inhibit"},
      {"measurement": "IC50", "setting": "[15]", "result": "> 30", "unit": "µM"}
    ]}
  ]
}
